Measurements from PubChem BioAssay AID270 (DTP/NCI, 2004).
“And” between values parts separate entries of the source, which are not always exact repeats. Equal values may be shown once. Records with an inconclusive call do not appear.

System: BDF1 mice, s.c. Lewis lung carcinoma, T/C %
Test: NCI In Vivo Anticancer Drug Screen. Data for tumor model Lewis Lung Carcinoma (subcutaneous) in B6D2F1 (BDF1) mice
Method in brief: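 Tumor-bearing mice were treated with test compound, and either survival or tumor size was recorded. Values are the treated-group measurement divided by that of the vehicle-treated control group.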

## NC1(C(=O)O)CCCC1
endpoint: mean tumor weight, dose: 30.0 mg/kg/injection, schedule: Q01DX011 (ip), vehicle: saline, higher = larger tumour
  T/C: 38 % of control and 61 % of control
endpoint: mean tumor weight, dose: 60.0 mg/kg/injection, schedule: Q01DX011 (ip), vehicle: saline, higher = larger tumour
  T/C: 25 % of control and 30 % of control
endpoint: mean tumor weight, dose: 120.0 mg/kg/injection, schedule: Q01DX011 (ip), vehicle: saline, higher = larger tumour
  T/C: 8 % of control
endpoint: median survival time, dose: 1.6 mg/kg/injection, schedule: Q01DX009 (ip), vehicle: carboxymethylcellulose (CMC), higher = longer survival
  T/C: 96 % of control
endpoint: median survival time, dose: 6.25 mg/kg/injection, schedule: Q01DX009 (ip), vehicle: carboxymethylcellulose (CMC), higher = longer survival
  T/C: 123 % of control

## O=C(O)/C=C\C(=O)Nc1nccs1
endpoint: mean tumor weight, dose: 50.0 mg/kg/injection, schedule: Q01DX011 (ip), vehicle: carboxymethylcellulose (CMC), higher = larger tumour
  T/C: 87 % of control
endpoint: mean tumor weight, dose: 100.0 mg/kg/injection, schedule: Q01DX011 (ip), vehicle: carboxymethylcellulose (CMC), higher = larger tumour
  T/C: 85 % of control

## O=P1(N(CCCl)CCCl)NCCCO1 (stereo unspecified)
endpoint: mean survival time, dose: 100.0 mg/kg/injection, schedule: Q08DX002 (ip), vehicle: saline, higher = longer survival
  T/C: 188 % of control
endpoint: mean survival time, dose: 300.0 mg/kg/injection, schedule: Q08DX002 (ip), vehicle: saline, higher = longer survival
  T/C: 117 % of control
endpoint: mean tumor weight (est.), dose: 65.0 mg/kg/injection, schedule: Q01DX009 (ip), vehicle: saline, higher = larger tumour
  T/C: 3 % of control
endpoint: mean tumor weight (est.), dose: 108.0 mg/kg/injection, schedule: Q01DX001 (ip), vehicle: saline, higher = larger tumour
  T/C: 19 % of control and 37 % of control
endpoint: mean tumor weight (est.), dose: 300.0 mg/kg/injection, schedule: Q01DX001 (ip), vehicle: saline, higher = larger tumour
  T/C: 15 % of control
endpoint: mean tumor weight, dose: 6.25 mg/kg/injection, schedule: Q01DX011 (ip), vehicle: saline, higher = larger tumour
  T/C: 70 % of control
endpoint: mean tumor weight, dose: 12.0 mg/kg/injection, schedule: Q01DX011 (ip), vehicle: saline, higher = larger tumour
  T/C: 55 % of control
endpoint: mean tumor weight, dose: 12.5 mg/kg/injection, schedule: Q01DX011 (ip), vehicle: saline, higher = larger tumour
  T/C: 74 % of control
endpoint: mean tumor weight, dose: 17.0 mg/kg/injection, schedule: Q01DX011 (ip), vehicle: saline, higher = larger tumour
  T/C: 43 % of control
endpoint: mean tumor weight, dose: 22.5 mg/kg/injection, schedule: Q01DX011 (ip), vehicle: saline, higher = larger tumour
  T/C: 19 % of control and 40 % of control
endpoint: mean tumor weight, dose: 25.0 mg/kg/injection, schedule: Q01DX011 (ip), vehicle: saline, higher = larger tumour
  T/C: 3 % of control and 5 % of control and 12 % of control
endpoint: mean tumor weight, dose: 45.0 mg/kg/injection, schedule: Q01DX011 (ip), vehicle: saline, higher = larger tumour
  T/C: 2 % of control and 11 % of control
endpoint: median survival time, dose: 5.0 mg/kg/injection, schedule: Q01DX011 (ip), vehicle: saline, higher = longer survival
  T/C: 107 % of control
endpoint: median survival time, dose: 10.0 mg/kg/injection, schedule: Q01DX001 (ip), vehicle: saline, higher = longer survival
  T/C: 100 % of control
endpoint: median survival time, dose: 10.0 mg/kg/injection, schedule: Q01DX005 (ip), vehicle: saline, higher = longer survival
  T/C: 153 % of control and 160 % of control
endpoint: median survival time, dose: 10.0 mg/kg/injection, schedule: Q01DX009 (ip), vehicle: saline, higher = longer survival
  T/C: 90 % of control
endpoint: median survival time, dose: 10.0 mg/kg/injection, schedule: Q01DX011 (ip), vehicle: saline, higher = longer survival
  T/C: 89 % of control
endpoint: median survival time, dose: 20.0 mg/kg/injection, schedule: Q01DX001 (ip), vehicle: saline, higher = longer survival
  T/C: 113 % of control
endpoint: median survival time, dose: 20.0 mg/kg/injection, schedule: Q01DX005 (ip), vehicle: saline, higher = longer survival
  T/C: 113 % of control
endpoint: median survival time, dose: 20.0 mg/kg/injection, schedule: Q01DX009 (ip), vehicle: saline, higher = longer survival
  T/C: 104 % of control
endpoint: median survival time, dose: 20.0 mg/kg/injection, schedule: Q01DX011 (ip), vehicle: saline, higher = longer survival
  T/C: 89 % of control
endpoint: median survival time, dose: 23.0 mg/kg/injection, schedule: Q01DX009 (ip), vehicle: saline, higher = longer survival
  T/C: 121 % of control and 124 % of control
endpoint: median survival time, dose: 25.0 mg/kg/injection, schedule: Q01DX001 (ip), vehicle: saline, higher = longer survival
  T/C: 98 % of control and 101 % of control
endpoint: median survival time, dose: 25.0 mg/kg/injection, schedule: Q01DX004 (ip), vehicle: saline, higher = longer survival
  T/C: 154 % of control
endpoint: median survival time, dose: 26.0 mg/kg/injection, schedule: Q01DX001 (ip), vehicle: saline, higher = longer survival
  T/C: 94 % of control and 95 % of control
endpoint: median survival time, dose: 39.0 mg/kg/injection, schedule: Q01DX009 (ip), vehicle: saline, higher = longer survival
  T/C: 91 % of control
endpoint: median survival time, dose: 40.0 mg/kg/injection, schedule: Q01DX001 (ip), vehicle: saline, higher = longer survival
  T/C: 88 % of control
endpoint: median survival time, dose: 40.0 mg/kg/injection, schedule: Q01DX009 (ip), vehicle: saline, higher = longer survival
  T/C: 222 % of control
endpoint: median survival time, dose: 43.0 mg/kg/injection, schedule: Q01DX001 (ip), vehicle: saline, higher = longer survival
  T/C: 112 % of control and 117 % of control
endpoint: median survival time, dose: 44.0 mg/kg/injection, schedule: Q01DX005 (ip), vehicle: saline, higher = longer survival
  T/C: 184 % of control and 233 % of control
endpoint: median survival time, dose: 44.4 mg/kg/injection, schedule: Q04DX003 (ip), vehicle: saline, higher = longer survival
  T/C: 105 % of control and 224 % of control
endpoint: median survival time, dose: 50.0 mg/kg/injection, schedule: Q01DX001 (ip), vehicle: saline, higher = longer survival
  T/C: 112 % of control and 117 % of control
endpoint: median survival time, dose: 50.0 mg/kg/injection, schedule: Q01DX001 (ip), vehicle: water, higher = longer survival
  T/C: 118 % of control
endpoint: median survival time, dose: 50.0 mg/kg/injection, schedule: Q01DX004 (ip), vehicle: saline, higher = longer survival
  T/C: 225 % of control
endpoint: median survival time, dose: 50.0 mg/kg/injection, schedule: Q01DX005 (ip), vehicle: saline, higher = longer survival
  T/C: 158 % of control
endpoint: median survival time, dose: 50.0 mg/kg/injection, schedule: Q04DX003 (sc), vehicle: saline, higher = longer survival
  T/C: 208 % of control and 210 % of control
endpoint: median survival time, dose: 66.7 mg/kg/injection, schedule: Q04DX003 (ip), vehicle: saline, higher = longer survival
  T/C: 167 % of control and 233 % of control
endpoint: median survival time, dose: 67.0 mg/kg/injection, schedule: Q01DX005 (ip), vehicle: saline, higher = longer survival
  T/C: 220 % of control
endpoint: median survival time, dose: 70.0 mg/kg/injection, schedule: Q01DX001 (ip), vehicle: saline, higher = longer survival
  T/C: 108 % of control and 112 % of control
endpoint: median survival time, dose: 72.0 mg/kg/injection, schedule: Q01DX001 (ip), vehicle: saline, higher = longer survival
  T/C: 117 % of control
endpoint: median survival time, dose: 80.0 mg/kg/injection, schedule: Q01DX009 (ip), vehicle: saline, higher = longer survival
  T/C: 100 % of control
endpoint: median survival time, dose: 100.0 mg/kg/injection, schedule: Q01DX001 (ip), vehicle: water, higher = longer survival
  T/C: 190 % of control
endpoint: median survival time, dose: 100.0 mg/kg/injection, schedule: Q01DX005 (ip), vehicle: saline, higher = longer survival
  T/C: 207 % of control
endpoint: median survival time, dose: 100.0 mg/kg/injection, schedule: Q04DX003 (ip), vehicle: saline, higher = longer survival
  T/C: 192 % of control and 233 % of control
endpoint: median survival time, dose: 100.0 mg/kg/injection, schedule: Q08DX002 (ip), vehicle: saline, higher = longer survival
  T/C: 208 % of control
endpoint: median survival time, dose: 100.0 mg/kg/injection, schedule: Q11DX002 (ip), vehicle: saline, higher = longer survival
  T/C: 163 % of control
endpoint: median survival time, dose: 150.0 mg/kg/injection, schedule: Q04DX003 (ip), vehicle: saline, higher = longer survival
  T/C: 233 % of control
endpoint: median survival time, dose: 150.0 mg/kg/injection, schedule: Q07DX002 (ip), vehicle: saline, higher = longer survival
  T/C: 233 % of control
endpoint: median survival time, dose: 150.0 mg/kg/injection, schedule: Q07DX004 (ip), vehicle: saline, higher = longer survival
  T/C: 221 % of control
endpoint: median survival time, dose: 150.0 mg/kg/injection, schedule: Q11DX002 (ip), vehicle: saline, higher = longer survival
  T/C: 150 % of control and 165 % of control
endpoint: median survival time, dose: 200.0 mg/kg/injection, schedule: Q04DX003 (sc), vehicle: saline, higher = longer survival
  T/C: 85 % of control
endpoint: median survival time, dose: 225.0 mg/kg/injection, schedule: Q01DX001 (ip), vehicle: saline, higher = longer survival
  T/C: 153 % of control
endpoint: median survival time, dose: 225.0 mg/kg/injection, schedule: Q07DX002 (ip), vehicle: saline, higher = longer survival
  T/C: 173 % of control
endpoint: median survival time, dose: 225.0 mg/kg/injection, schedule: Q09DX002 (ip), vehicle: saline, higher = longer survival
  T/C: 183 % of control
endpoint: median survival time, dose: 225.0 mg/kg/injection, schedule: Q11DX002 (ip), vehicle: saline, higher = longer survival
  T/C: 166 % of control and 189 % of control
endpoint: median survival time, dose: 230.0 mg/kg/injection, schedule: Q01DX001 (ip), vehicle: saline, higher = longer survival
  T/C: 154 % of control
endpoint: median survival time, dose: 300.0 mg/kg/injection, schedule: Q07DX002 (ip), vehicle: saline, higher = longer survival
  T/C: 173 % of control
endpoint: median survival time, dose: 300.0 mg/kg/injection, schedule: Q08DX002 (ip), vehicle: saline, higher = longer survival
  T/C: 100 % of control
endpoint: median survival time, dose: 333.0 mg/kg/injection, schedule: Q01DX001 (ip), vehicle: saline, higher = longer survival
  T/C: 157 % of control and 193 % of control
endpoint: median survival time, dose: 500.0 mg/kg/injection, schedule: Q01DX001 (ip), vehicle: saline, higher = longer survival
  T/C: 72 % of control
endpoint: median survival time, dose: 556.0 mg/kg/injection, schedule: Q01DX001 (ip), vehicle: saline, higher = longer survival
  T/C: 47 % of control
endpoint: median tumor weight (est.), dose: 25.0 mg/kg/injection, schedule: Q01DX009 (ip), vehicle: saline, higher = larger tumour
  T/C: 50 % of control
endpoint: median tumor weight (est.), dose: 50.0 mg/kg/injection, schedule: Q01DX009 (ip), vehicle: saline, higher = larger tumour
  T/C: 11 % of control and 19 % of control
endpoint: median tumor weight (est.), dose: 75.0 mg/kg/injection, schedule: Q01DX001 (ip), vehicle: saline, higher = larger tumour
  T/C: 76 % of control
endpoint: median tumor weight (est.), dose: 103.0 mg/kg/injection, schedule: Q01DX001 (ip), vehicle: saline, higher = larger tumour
  T/C: 38 % of control
endpoint: median tumor weight (est.), dose: 150.0 mg/kg/injection, schedule: Q01DX001 (ip), vehicle: saline, higher = larger tumour
  T/C: 34 % of control
endpoint: median tumor weight (est.), dose: 209.0 mg/kg/injection, schedule: Q01DX001 (ip), vehicle: saline, higher = larger tumour
  T/C: 16 % of control
endpoint: median tumor weight (est.), dose: 300.0 mg/kg/injection, schedule: Q01DX001 (ip), vehicle: saline, higher = larger tumour
  T/C: 2 % of control
endpoint: median tumor weight (est.), dose: 312.0 mg/kg/injection, schedule: Q01DX001 (ip), vehicle: saline, higher = larger tumour
  T/C: 7 % of control
